{"source": "paper PMC10247784", "about": "“Physiological activation of human and mouse bitter taste receptors by bile acids” (Communications Biology, 2023)", "molecular_target": "T1, human TAS2R1 (Homo sapiens, UniProt Q9NYW7)", "T1 construct": "expressed in transfected cells; host or cells: HEK293T-Gα16gust44", "T1 sequence (Q9NYW7 1-299)": "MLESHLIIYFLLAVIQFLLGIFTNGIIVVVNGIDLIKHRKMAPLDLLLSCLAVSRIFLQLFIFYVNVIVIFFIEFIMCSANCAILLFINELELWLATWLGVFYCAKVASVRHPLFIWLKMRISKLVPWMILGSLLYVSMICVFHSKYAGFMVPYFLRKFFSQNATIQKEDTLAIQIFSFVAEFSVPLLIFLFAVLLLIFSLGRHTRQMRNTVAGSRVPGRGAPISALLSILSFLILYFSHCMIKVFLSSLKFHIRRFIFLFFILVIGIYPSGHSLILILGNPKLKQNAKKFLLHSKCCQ", "experiment": "Calcium imaging assay (FLIPR), HEK293T-Gα16gust44 cells transfected with human TAS2R1", "type": "cell-based", "summary_of_the_method": "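Bile acids from DMSO stocks are applied to dye-loaded cells one day after transient receptor transfection, and calcium-dependent fluorescence is recorded. Maximum signal is standardized to basal and normalized to buffer-only wells, with empty-vector signal subtracted.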", "note": "Where “and” joins values, the source holds several entries; their conditions need not be identical. Equal entries are not always repeated."}
{"smiles": "C[C@H](CCC(=O)NCCS(=O)(=O)O)[C@H]1CC[C@H]2[C@@H]3CC[C@@H]4C[C@H](O)CC[C@]4(C)[C@H]3CC[C@]12C", "note": "[Taurolithocholic Acid, taurolithocholic acid]", "values": [{"measurement": "Efficacy = maximal amplitude (ΔF/F)", "setting": "TAS2R1, bile acids, mean", "value": 0.1277}, {"measurement": "Efficacy (maximal amplitude ΔF/F), individual data points", "setting": "TAS2R1, bile acids, single replicates, listed as TLCA", "value": "0.1258 and 0.1227 and 0.1699 and 0.1221 and 0.09796"}, {"measurement": "RLU", "setting": "Time 0 s (second time grid)", "value": 0, "unit": "RLU"}, {"measurement": "RLU", "setting": "Time 2 s", "value": -8.765, "unit": "RLU"}, {"measurement": "RLU", "setting": "Time 4 s", "value": 34.6882, "unit": "RLU"}, {"measurement": "RLU", "setting": "Time 6 s", "value": 11.8088, "unit": "RLU"}, {"measurement": "RLU", "setting": "Time 8 s", "value": 18.099, "unit": "RLU"}, {"measurement": "RLU", "setting": "Time 12 s", "value": 15.1496, "unit": "RLU"}, {"measurement": "RLU", "setting": "Time 14 s", "value": 13.1492, "unit": "RLU"}, {"measurement": "RLU", "setting": "Time 16 s", "value": 0.9458, "unit": "RLU"}, {"measurement": "RLU", "setting": "Time 18 s", "value": 9.703, "unit": "RLU"}, {"measurement": "RLU", "setting": "Time 18.781 s", "value": 5.165, "unit": "RLU"}, {"measurement": "RLU", "setting": "Time 20.781 s", "value": 27.2472, "unit": "RLU"}, {"measurement": "RLU", "setting": "Time 22.781 s", "value": 1.644, "unit": "RLU"}, {"measurement": "RLU", "setting": "Time 24.781 s", "value": -21.8293, "unit": "RLU"}, {"measurement": "RLU", "setting": "Time 26.781 s", "value": 33.0454, "unit": "RLU"}, {"measurement": "RLU", "setting": "Time 28.781 s", "value": 106.888, "unit": "RLU"}, {"measurement": "RLU", "setting": "Time 30.781 s", "value": 183.135, "unit": "RLU"}, {"measurement": "RLU", "setting": "Time 32.781 s", "value": 270.143, "unit": "RLU"}, {"measurement": "RLU", "setting": "Time 34.781 s", "value": 337.182, "unit": "RLU"}, {"measurement": "RLU", "setting": "Time 36.781 s", "value": 405.016, "unit": "RLU"}, {"measurement": "RLU", "setting": "Time 38.781 s", "value": 448.367, "unit": "RLU"}, {"measurement": "RLU", "setting": "Time 40.781 s", "value": 483.096, "unit": "RLU"}, {"measurement": "RLU", "setting": "Time 42.781 s", "value": 511.157, "unit": "RLU"}, {"measurement": "RLU", "setting": "Time 44.781 s", "value": 542.077, "unit": "RLU"}, {"measurement": "RLU", "setting": "Time 46.781 s", "value": 572.975, "unit": "RLU"}, {"measurement": "RLU", "setting": "Time 48.781 s", "value": 599.496, "unit": "RLU"}, {"measurement": "RLU", "setting": "Time 50.781 s", "value": 624.238, "unit": "RLU"}, {"measurement": "RLU", "setting": "Time 52.781 s", "value": 642.403, "unit": "RLU"}, {"measurement": "RLU", "setting": "Time 54.781 s", "value": 649.802, "unit": "RLU"}, {"measurement": "RLU", "setting": "Time 56.781 s", "value": 680.566, "unit": "RLU"}, {"measurement": "RLU", "setting": "Time 58.781 s", "value": 693.048, "unit": "RLU"}, {"measurement": "RLU", "setting": "Time 60.781 s", "value": 676.887, "unit": "RLU"}, {"measurement": "RLU", "setting": "Time 62.781 s", "value": 735.967, "unit": "RLU"}, {"measurement": "RLU", "setting": "Time 64.781 s", "value": 726.535, "unit": "RLU"}, {"measurement": "RLU", "setting": "Time 66.781 s", "value": 712, "unit": "RLU"}, {"measurement": "RLU", "setting": "Time 68.781 s", "value": 708.17, "unit": "RLU"}, {"measurement": "RLU", "setting": "Time 70.781 s", "value": 740.519, "unit": "RLU"}, {"measurement": "RLU", "setting": "Time 72.781 s", "value": 720.827, "unit": "RLU"}, {"measurement": "RLU", "setting": "Time 74.781 s", "value": 715.629, "unit": "RLU"}, {"measurement": "RLU", "setting": "Time 76.781 s", "value": 740.295, "unit": "RLU"}, {"measurement": "RLU", "setting": "Time 78.781 s", "value": 736.469, "unit": "RLU"}, {"measurement": "RLU", "setting": "Time 80.781 s", "value": 705.753, "unit": "RLU"}, {"measurement": "RLU", "setting": "Time 82.781 s", "value": 719.776, "unit": "RLU"}, {"measurement": "RLU", "setting": "Time 84.781 s", "value": 729.602, "unit": "RLU"}, {"measurement": "RLU", "setting": "Time 86.781 s", "value": 717.016, "unit": "RLU"}, {"measurement": "RLU", "setting": "Time 88.781 s", "value": 708.528, "unit": "RLU"}, {"measurement": "RLU", "setting": "Time 90.781 s", "value": 685.914, "unit": "RLU"}, {"measurement": "RLU", "setting": "Time 92.781 s", "value": 709.593, "unit": "RLU"}, {"measurement": "RLU", "setting": "Time 94.781 s", "value": 708.426, "unit": "RLU"}, {"measurement": "RLU", "setting": "Time 96.781 s", "value": 665.125, "unit": "RLU"}, {"measurement": "RLU", "setting": "Time 98.781 s", "value": 639.76, "unit": "RLU"}, {"measurement": "RLU", "setting": "Time 100.781 s", "value": 661.017, "unit": "RLU"}, {"measurement": "RLU", "setting": "Time 102.781 s", "value": 653.391, "unit": "RLU"}, {"measurement": "RLU", "setting": "Time 104.781 s", "value": 622.006, "unit": "RLU"}, {"measurement": "RLU", "setting": "Time 106.781 s", "value": 616.277, "unit": "RLU"}, {"measurement": "RLU", "setting": "Time 108.781 s", "value": 602.431, "unit": "RLU"}, {"measurement": "RLU", "setting": "Time 110.781 s", "value": 574.352, "unit": "RLU"}, {"measurement": "RLU", "setting": "Time 112.781 s", "value": 593.769, "unit": "RLU"}, {"measurement": "RLU", "setting": "Time 114.781 s", "value": 553.55, "unit": "RLU"}, {"measurement": "RLU", "setting": "Time 116.781 s", "value": 583.964, "unit": "RLU"}, {"measurement": "RLU", "setting": "Time 118.781 s", "value": 539.304, "unit": "RLU"}, {"measurement": "RLU", "setting": "Time 120.781 s", "value": 524.165, "unit": "RLU"}, {"measurement": "RLU", "setting": "Time 122.781 s", "value": 518.27, "unit": "RLU"}, {"measurement": "RLU", "setting": "Time 124.781 s", "value": 503.611, "unit": "RLU"}, {"measurement": "RLU", "setting": "Time 126.781 s", "value": 474.132, "unit": "RLU"}, {"measurement": "RLU", "setting": "Time 128.781 s", "value": 435.021, "unit": "RLU"}, {"measurement": "RLU", "setting": "Time 130.781 s", "value": 439.84, "unit": "RLU"}, {"measurement": "RLU", "setting": "Time 132.781 s", "value": 420.045, "unit": "RLU"}, {"measurement": "RLU", "setting": "Time 134.781 s", "value": 393.577, "unit": "RLU"}, {"measurement": "RLU", "setting": "Time 136.781 s", "value": 395.556, "unit": "RLU"}, {"measurement": "RLU", "setting": "Time 137.547 s", "value": 402.14, "unit": "RLU"}, {"measurement": "RLU", "setting": "Time 143.547 s", "value": 371.698, "unit": "RLU"}, {"measurement": "RLU", "setting": "Time 149.547 s", "value": 331.65, "unit": "RLU"}, {"measurement": "RLU", "setting": "Time 155.547 s", "value": 280.988, "unit": "RLU"}, {"measurement": "RLU", "setting": "Time 161.547 s", "value": 237.537, "unit": "RLU"}, {"measurement": "RLU", "setting": "Time 167.547 s", "value": 191.55, "unit": "RLU"}, {"measurement": "RLU", "setting": "Time 173.547 s", "value": 185.568, "unit": "RLU"}, {"measurement": "RLU", "setting": "Time 179.547 s", "value": 137.711, "unit": "RLU"}, {"measurement": "RLU", "setting": "Time 185.547 s", "value": 105.562, "unit": "RLU"}, {"measurement": "RLU", "setting": "Time 191.547 s", "value": 24.299, "unit": "RLU"}, {"measurement": "RLU", "setting": "Time 197.547 s", "value": 1.672, "unit": "RLU"}, {"measurement": "RLU", "setting": "Time 203.547 s", "value": -7.55, "unit": "RLU"}, {"measurement": "RLU", "setting": "Time 209.547 s", "value": -39.8614, "unit": "RLU"}, {"measurement": "RLU", "setting": "Time 215.547 s", "value": -81.387, "unit": "RLU"}, {"measurement": "RLU", "setting": "Time 221.547 s", "value": -74.4232, "unit": "RLU"}, {"measurement": "RLU", "setting": "Time 227.547 s", "value": -79.2952, "unit": "RLU"}, {"measurement": "RLU", "setting": "Time 233.547 s", "value": -69.562, "unit": "RLU"}, {"measurement": "RLU", "setting": "Time 239.547 s", "value": -81.6561, "unit": "RLU"}, {"measurement": "RLU", "setting": "Time 245.547 s", "value": -72.3962, "unit": "RLU"}, {"measurement": "RLU", "setting": "Time 293.547 s", "value": -154.558, "unit": "RLU"}, {"measurement": "RLU", "setting": "Time 299.547 s", "value": -170.989, "unit": "RLU"}, {"measurement": "RLU", "setting": "calcium trace, sheet TAS2R1, Time 305.547 s", "value": -184.97, "unit": "RLU"}, {"measurement": "RLU", "setting": "calcium trace, sheet TAS2R1, Time 311.547 s", "value": -208.123, "unit": "RLU"}, {"measurement": "RLU", "setting": "calcium trace, sheet TAS2R1, Time 317.547 s", "value": -201.311, "unit": "RLU"}, {"measurement": "RLU", "setting": "calcium trace, sheet TAS2R1, Time 323.547 s", "value": -236.998, "unit": "RLU"}, {"measurement": "RLU", "setting": "calcium trace, sheet TAS2R1, Time 329.547 s", "value": -230.646, "unit": "RLU"}, {"measurement": "RLU", "setting": "calcium trace, sheet TAS2R1, Time 335.547 s", "value": -241.48, "unit": "RLU"}, {"measurement": "RLU", "setting": "calcium trace, sheet TAS2R1, Time 341.547 s", "value": -222.174, "unit": "RLU"}, {"measurement": "RLU", "setting": "calcium trace, sheet TAS2R1, Time 347.547 s", "value": -215.316, "unit": "RLU"}, {"measurement": "RLU", "setting": "calcium trace, sheet TAS2R1, Time 353.547 s", "value": -228.211, "unit": "RLU"}, {"measurement": "RLU", "setting": "calcium trace, sheet TAS2R1, Time 359.547 s", "value": -233.286, "unit": "RLU"}, {"measurement": "EC50", "setting": "calculated where receptor saturation was reached", "value": 1900, "unit": "nM"}, {"measurement": "Activation threshold concentration TAS2R1", "setting": "lowest concentration with significantly increased fluorescence vs empty vector (p < 0.01)", "value": "0.3 µM and 0.30 µM"}]}
